Results from US8901074B2, “Methods of treating autoimmune diseases of the central nervous system (CNS) and neurodegenerative diseases” (Ramot at Tel-Aviv University, priority 2010, dated 2014).
pIC50: −log10 of the molar value. Where no end group is shown, it is not given here.

Experiments:
[1] = target: T1, insulin degrading enzyme (IDE) (Homo sapiens, UniProt P14735); assay: IDE enzymatic activity inhibition; assay type: biochemical
T1 sequence (P14735 1-1019): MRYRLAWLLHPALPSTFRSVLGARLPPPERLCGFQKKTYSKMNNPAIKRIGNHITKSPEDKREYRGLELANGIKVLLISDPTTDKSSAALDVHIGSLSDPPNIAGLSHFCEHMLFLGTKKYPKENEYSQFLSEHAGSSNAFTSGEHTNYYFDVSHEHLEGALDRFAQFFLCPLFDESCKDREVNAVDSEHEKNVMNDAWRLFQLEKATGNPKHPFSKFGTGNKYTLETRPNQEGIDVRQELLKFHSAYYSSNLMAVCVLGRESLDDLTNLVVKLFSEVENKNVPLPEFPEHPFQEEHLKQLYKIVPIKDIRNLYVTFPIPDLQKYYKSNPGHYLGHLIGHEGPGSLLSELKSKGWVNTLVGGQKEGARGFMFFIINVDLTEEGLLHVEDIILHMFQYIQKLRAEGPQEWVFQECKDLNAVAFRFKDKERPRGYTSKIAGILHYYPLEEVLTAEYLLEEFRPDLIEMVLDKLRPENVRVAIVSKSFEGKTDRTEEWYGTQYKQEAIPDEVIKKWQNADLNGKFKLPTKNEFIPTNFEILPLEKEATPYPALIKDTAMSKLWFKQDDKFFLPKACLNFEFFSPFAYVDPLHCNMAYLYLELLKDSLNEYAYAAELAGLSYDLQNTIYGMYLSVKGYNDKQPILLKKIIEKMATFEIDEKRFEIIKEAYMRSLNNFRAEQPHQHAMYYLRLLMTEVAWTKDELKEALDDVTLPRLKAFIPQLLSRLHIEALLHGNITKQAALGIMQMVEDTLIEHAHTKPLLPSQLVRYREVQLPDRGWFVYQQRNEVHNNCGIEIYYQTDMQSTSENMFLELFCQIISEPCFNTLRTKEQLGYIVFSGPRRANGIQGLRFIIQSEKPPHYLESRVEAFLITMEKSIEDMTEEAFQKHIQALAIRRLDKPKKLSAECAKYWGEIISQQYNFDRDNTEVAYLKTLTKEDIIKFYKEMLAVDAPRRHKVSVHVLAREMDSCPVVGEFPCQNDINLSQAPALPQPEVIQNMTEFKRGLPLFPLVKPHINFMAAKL
Description: The IDE inhibitor of the present teachings specifically down-regulates the enzymatic activity of IDE. For instance, the IC50 of IDE is in the range of 10-200 nM as assayed for ADT-21. According to exemplary embodiments, the IDE inhibitor of the present invention is capable of down-regulating by at least 5%, at least 10%, at least 15%, at least 20%, at least 30%, at least 40%, at least 50%, at least 60%, at least 70%, at least 80%, at least 90% or at least 100% the enzymatic activity of IDE.
Any method known in the art for measuring IDE activity may be used to assess down-regulation in IDE. For example, one method which may be used comprises the use of an Insulysin/IDE Immunocapture Activity Assay Kit (available e.g. from InnoZyme™, Calbiochem). Using this kit ELISA plates are first coated with the target enzyme (i.e. IDE) and then the plates are incubated with a substrate (e.g. insulin). The enzymatic activity is measured in comparison to wells without the substrate using for example a FRET substrate, Mca-GGFLRKHGQ-EDDnp (SEQ ID NO: 79). Cleavage of the scissile amide bond between R and K releases the fluorophore from the quenching molecule, Dnp, resulting in an increase in fluorescence. The increase in fluorescence is measured using an excitation wavelength of 320 nm and an emission wavelength of 405 nm.

[2] = Toxicity monitoring (body weight, eating habits, tail tone, mobility) in APP mice; assay type: in vivo; conditions: 1.07 μg/mouse every other day for 4 months
Description: 8-week-old APP/PSI mice were used as previously described (Oakley et al 2006, J Neurosci 26: 10129-10140). Mice were treated with either ADT21 (1.07 μg/mouse) or PBS every other day for 4 months.
Contextual fear conditioning was tested as described previously (Carlos A. et al., 2005) Mice were placed within the conditioning chamber (Coulbourn Instruments, Allentown, Pa.) (7″W×7″D×12″H) for 3 min before the onset of the unconditioned stimulus (US; footshock; 1 s/1 mA) through the cage grid floor (Model H10-11M-TC-SF) from a Coulbourn Instruments shocker (Model H13-15). Activation was detected via a camera above the cage (ACT-VP-01) with a special algorithm for motion detection, to allow them to develop a representation of the context via exploration. After the shock, mice were left in the chamber for 2 min (immediate freezing) and returned to their home cages. 24 hours after the training session, the mice were again placed in the chamber and tested for 4 min without any footshocks. The chamber was isolated in a quiet environment using the noise sealed box (H10-24T Coulbourn Instruments). Freezing response was scored by using the FreezeFrame automated system (Coulbourn Instruments). Furthermore, mice were daily monitored for body weight, eating habits, tail tone and mobility.

Sequence: ITNPGSGGSSVLRYDDFHTD [ADT21]
- pIC50 [1]: 6.70 to 8.00
- changes in behavior indicating toxicity (body weight, eating habits, tail tone, mobility) [2]: no changes in their behavior
